Results on 101 compounds are retold here after ChEMBL document CHEMBL3507680, “University of Dundee, Gates Library screen for HepG2 cell viability”.

The data set in a line: Human HepG2 cell viability assay in 384 well format. The class given is toxicity, cell-based. On the set-up: dose 125 nL, time 70.5 hour; cytotoxicity at 70.5 h: concentration not given beside the values. The note with it: HepG2 cells, read-out: Inhibition.
For `Cc1cc2ncn(C(=O)N3CCCC3)c2cc1C`, the cytotoxicity at 70.5 h is -2.26%.

Take `CCCS(=O)(=O)N1CCN(Cc2ccco2)CC1`: the cytotoxicity at 70.5 h is -7.67%.

Consider `Cc1nc(N2CCOCC2)nc2c1CCN(C(=O)NC1CCCC1)CC2`, for which the cytotoxicity at 70.5 h amounted to 20.6%.

In the case of `CCN1C[C@H]2CCN(C(C)=O)CC[C@H]2S1(=O)=O`, the cytotoxicity at 70.5 h was -14.5%.

For the compound `O=c1cc(Cn2ccnc2)nc2n1CCCN(Cc1ccsc1)C2`, the cytotoxicity at 70.5 h is -19.5%.

Turning to `CC1CCc2nn(CCNC(=O)Cc3cccs3)c(=O)cc2C1` (stereo unspecified), the cytotoxicity at 70.5 h was -2.17%.

On to `CC1CCc2nn(CCNC(=O)c3ccco3)c(=O)cc2C1` (stereo unspecified), for which the cytotoxicity at 70.5 h is -5.13%.

As for `CNC(=O)C1(CCCc2ccccn2)CN(Cc2coc(C)n2)C1`, the cytotoxicity at 70.5 h was -5.7%.

On to `CN1CCC(Cc2cnc3ccccc3c2)C1` (stereo unspecified), for which the cytotoxicity at 70.5 h was 1.19%.

`CNC(=O)c1c[nH]nc1C1CCCN1c1ncccn1` (stereo unspecified): the cytotoxicity at 70.5 h was -4.93%.

In the case of `Cc1cc2nccc(C3CCCN(C(=O)c4cnccn4)C3)n2n1` (stereo unspecified), the cytotoxicity at 70.5 h is 0.174%.

For `CN(C)C(=O)Cn1c(C2CC2)c(CN2CCOCC2)c2cccnc21`, the cytotoxicity at 70.5 h is -1.8%.

Take `CSc1ncc(C(=O)N(C)C(C)Cc2ccccn2)cn1` (stereo unspecified): the cytotoxicity at 70.5 h is -5.33%.

For the compound `Cc1cc(C)n(CC(=O)N2CCC(c3cc4cccnc4[nH]3)CC2)n1`, the cytotoxicity at 70.5 h came to 29.7%.

Take `Cc1cc(C)n(CC(=O)N2CCCC2c2cc3cccnc3[nH]2)n1` (stereo unspecified): the cytotoxicity at 70.5 h is 2.7%.

Turning to `CNc1ncc(CN2CCC(CCc3ccccc3)CC2)cn1`, the cytotoxicity at 70.5 h is -1.31%.

Take `COc1cc2c(cc1CN1CCc3sccc3C1C)OCO2` (stereo unspecified): the cytotoxicity at 70.5 h came to 2.98%.

Take `Cc1cnc2[nH]c(C(F)(F)F)c(CN3CCCC(CO)C3)c2c1` (stereo unspecified): the cytotoxicity at 70.5 h was found to be 3.56%.

With `COCC(=O)N1CCC(c2cc(-c3ccc(OC)cc3)n[nH]2)C1` (stereo unspecified), the cytotoxicity at 70.5 h worked out at 10.4%.

Turning to `Cc1ccc(CN2CCc3c(nc4cc(C5CC5)nn4c3O)C2)s1`, the cytotoxicity at 70.5 h was 18.3%.

For `COCC(=O)N1CCC(c2cc(-c3ccc(C)cc3)n[nH]2)C1` (stereo unspecified), the cytotoxicity at 70.5 h was determined as 14.4%.

For the compound `CC1CCN(Cc2c(C(C)C)[nH]c3ncccc23)CC1`, the cytotoxicity at 70.5 h is -8.35%.

Consider `COc1ccc2c(c1)NC(C1CCNCC1)NS2(=O)=O` (stereo unspecified), for which the cytotoxicity at 70.5 h was -4.76%.

`COc1ccc2c(c1)NC(C1CCN(C(=O)C3CC3)CC1)NS2(=O)=O` (stereo unspecified): the cytotoxicity at 70.5 h was -4.62%.

`CC(C)OCCCNS(=O)(=O)c1ccc2c(c1)NC(=O)C(C)O2` (stereo unspecified): the cytotoxicity at 70.5 h was -4.7%.

Regarding `CCN(CC)CCCNCc1cc2cc(C)ccc2[nH]c1=O`, the cytotoxicity at 70.5 h was 7.87%.

As for `CN1CCC(c2cncc(Cl)n2)CC1`, the cytotoxicity at 70.5 h was -5.05%.

Regarding `CS(=O)(=O)N1CCCC(Cc2cnc(Br)cn2)CC1` (stereo unspecified), the cytotoxicity at 70.5 h worked out at 13.7%.

Regarding `Cc1cc(C(=O)N[C@@H]2CCC[C@@H](N3CCOCC3)[C@@H]2O)no1`, the cytotoxicity at 70.5 h is -6.42%.

Turning to `Cc1noc(C)c1CCC(=O)NCC1(O)CCN(c2ccccn2)C1` (stereo unspecified), the cytotoxicity at 70.5 h is -6.52%.

With `CN1CCCC(c2cccc(-c3cccc(F)c3)n2)C1` (stereo unspecified), the cytotoxicity at 70.5 h was -5.53%.

Take `Cc1cc(Oc2ccccc2C)nc(C2CCCN2)n1` (stereo unspecified): the cytotoxicity at 70.5 h was determined as 9.24%.

For `COCCC(=O)N1CCCC(c2n[nH]cc2C)C1` (stereo unspecified), the cytotoxicity at 70.5 h came out at 15.1%.

For `NC(=O)c1cc(CC2CCCN(c3cnccn3)C2)ncn1` (stereo unspecified), the cytotoxicity at 70.5 h was -6.16%.

For the compound `CCCc1cc(C(=O)N[C@@H]2CCC[C@@H](N3CCCC3)[C@@H]2O)no1`, the cytotoxicity at 70.5 h was -4%.

Regarding `Cc1ncc(CN2CCC(c3nc(O)cc(-c4ccsc4)n3)CC2)cn1`, the cytotoxicity at 70.5 h was -3.5%.

As for `c1ncc(CN2CC(Cc3nccc4cc[nH]c34)C2)cn1`, the cytotoxicity at 70.5 h was -1.22%.

In the case of `CC(C)c1nnc(CCC(=O)N2CCOC(c3cnccn3)C2)o1` (stereo unspecified), the cytotoxicity at 70.5 h was -5.45%.

`O=C(O)c1ccccc1-n1cnc(CN2CCCCCC2)c1`: the cytotoxicity at 70.5 h was -1.66%.

Turning to `CN1CCNCC(Cc2cnc3ccccc3c2)C1` (stereo unspecified), the cytotoxicity at 70.5 h was -3.02%.

Regarding `Fc1ccc(Oc2nccnc2C2CCN(C3CCOCC3)CC2)cc1`, the cytotoxicity at 70.5 h was -3.07%.

`CN1CCCC(c2cccc(-c3cccc(Cl)c3)n2)C1` (stereo unspecified): the cytotoxicity at 70.5 h was found to be 18%.

On to `c1ccc(CN2CCCC[C@H]3CN(c4ncccn4)C[C@H]32)cc1`, for which the cytotoxicity at 70.5 h was -6.75%.

In the case of `c1ccc2ncc(CC3CCNC3)cc2c1` (stereo unspecified), the cytotoxicity at 70.5 h is 19.8%.

For the compound `COc1ccccc1C(=O)N1C[C@@H]2CCCCN(CC(N)=O)[C@@H]2C1`, the cytotoxicity at 70.5 h was -11.4%.

On to `O=S(=O)(c1ccccc1)N1C[C@@H]2CCCCN(Cc3cccs3)[C@@H]2C1`, for which the cytotoxicity at 70.5 h is -17.2%.

For `Cc1cnc(CC2COCCN(C(=O)c3cncnc3)C2)cn1` (stereo unspecified), the cytotoxicity at 70.5 h was -5.02%.

Consider `CCS(=O)(=O)N1C[C@@H](O)[C@H](N2CCc3ccccc3C2)C1`, for which the cytotoxicity at 70.5 h is -5.96%.

Take `Cc1ncc(C(=O)N2CCCC2(C)C(=O)N2CCOCC2)c(C)n1` (stereo unspecified): the cytotoxicity at 70.5 h was -7.99%.

Regarding `Cc1ccc(S(=O)(=O)N2CCCC(c3n[nH]cc3C(=O)N(C)C)C2)cc1` (stereo unspecified), the cytotoxicity at 70.5 h turned out to be 9.91%.

`CCN(CC)C(=O)CN1CCC(c2nc(C)c3c(n2)N(C)CCC3)CC1`: the cytotoxicity at 70.5 h amounted to 17.6%.

Take `CC(C)C(=O)N1CCCC1c1nc(N(C)C)ncc1-c1ccc(Cl)cc1` (stereo unspecified): the cytotoxicity at 70.5 h came to 6.28%.

On to `NC(=O)c1cccc(C2CCN(c3ncccn3)CC2)n1`, for which the cytotoxicity at 70.5 h is -13.4%.

Regarding `Cc1cc(-c2ccccc2)nc(C2CCCN2S(C)(=O)=O)n1` (stereo unspecified), the cytotoxicity at 70.5 h is -5.33%.

As for `CC(=O)Nc1nccn1Cc1ccccc1Cl`, the cytotoxicity at 70.5 h is -2.67%.

As for `CCC(c1ccncc1)N(C)S(C)(=O)=O` (stereo unspecified), the cytotoxicity at 70.5 h is -1.1%.

Consider `O=C(Nc1cccnc1N1CCSCC1)c1ccc2c(c1)CCO2`, for which the cytotoxicity at 70.5 h turned out to be 53.2%.

Take `CCn1nnnc1-c1cccc(NCc2nc(C)ccc2O)c1`: the cytotoxicity at 70.5 h was -6.25%.

Turning to `c1cc2occc2c(N2CCCC(c3nncn3C3CC3)C2)n1` (stereo unspecified), the cytotoxicity at 70.5 h is 17.6%.

Regarding `COCCC(C)NS(=O)(=O)c1ccc(C)c(N(C)C)c1` (stereo unspecified), the cytotoxicity at 70.5 h is -2.25%.

On to `CC(c1cccnc1)N(C)S(C)(=O)=O` (stereo unspecified), for which the cytotoxicity at 70.5 h is -2.51%.

Consider `O=C(CCc1nnc(-c2ccccc2)o1)N1CCCC1c1ccc[nH]1` (stereo unspecified), for which the cytotoxicity at 70.5 h is -3.43%.

Consider `COCCS(=O)(=O)Nc1cc(Cl)ccn1`, for which the cytotoxicity at 70.5 h worked out at 14.3%.

Consider `COCCCN(C)C(=O)c1nnn(-c2ccccc2Cl)c1C`, for which the cytotoxicity at 70.5 h turned out to be 1.5%.

On to `O=C(CN(Cc1cccs1)C1CCS(=O)(=O)C1)NC1CCCCC1` (stereo unspecified), for which the cytotoxicity at 70.5 h was 26.4%.

On to `O=C(CN(Cc1cccs1)C1CCS(=O)(=O)C1)NCCc1cccs1` (stereo unspecified), for which the cytotoxicity at 70.5 h was -2.26%.

For the compound `CC(C)(CNC(=O)C(C)(C)Oc1ccc2c(c1)CCCC2=O)C(N)=O`, the cytotoxicity at 70.5 h came to 0.471%.

With `COc1ccccc1NC(=O)c1[nH]nc(C(C)C)c1Br`, the cytotoxicity at 70.5 h was -3.43%.

On to `CC(=O)Nc1nc(COc2nc(C)no2)cs1`, for which the cytotoxicity at 70.5 h was 24.6%.

With `CSc1ccc(C(=O)N(c2ccc(F)cn2)C2CCOCC2)o1`, the cytotoxicity at 70.5 h amounted to 30.2%.

As to `O=S(=O)(CCc1ccccc1)Nc1cc(Cl)ccn1`, the cytotoxicity at 70.5 h is 0.152%.

`COc1ccc2nc(C3CC3)cc(C(=O)NCc3noc(C)n3)c2c1`: the cytotoxicity at 70.5 h is -1.37%.

Consider `COc1ccc2nc(C3CC3)cc(C(=O)NCc3ncnn3C)c2c1`, for which the cytotoxicity at 70.5 h was 0.319%.

`Cc1cncc(C(=O)N(c2ccc(F)cn2)C2CCOCC2)c1`: the cytotoxicity at 70.5 h was found to be 5.37%.

For `CC(NC(=O)N1CCC2(C1)OCCO2)c1cccc(Cl)c1` (stereo unspecified), the cytotoxicity at 70.5 h was -4.94%.

As for `O=S1(=O)CCCN(Cc2ccccc2OCC(F)(F)F)CC1`, the cytotoxicity at 70.5 h was -8.02%.

Consider `Cc1ccc(O)c(C(=O)NCCS(=O)(=O)Cc2ccccc2)c1`, for which the cytotoxicity at 70.5 h was -5.32%.

With `Cc1ccc(C(=O)NCCS(=O)(=O)Cc2ccccc2)c(C)c1`, the cytotoxicity at 70.5 h was 1.96%.

In the case of `Cc1cccc(C(=O)NCCS(=O)(=O)Cc2ccccc2)c1`, the cytotoxicity at 70.5 h was -8.95%.

Regarding `CCCn1c(NC(=O)CNC(=O)OCC)nc2ccccc21`, the cytotoxicity at 70.5 h is -8.2%.

`COc1ccccc1C1(CNc2cn[nH]c(=O)c2Cl)CCOCC1`: the cytotoxicity at 70.5 h is -13.8%.

As for `O=C(COC1CCCCC1)Nc1ccn(Cc2cccnc2)n1`, the cytotoxicity at 70.5 h was -7.64%.

With `Cc1nc(C)n(CC2CCCN2c2ccnc(-c3ccccc3)n2)n1` (stereo unspecified), the cytotoxicity at 70.5 h is -6.3%.

In the case of `CCc1nc2n(n1)CC(Nc1nc(C)cc(N(C)C)n1)CC2` (stereo unspecified), the cytotoxicity at 70.5 h is -6.31%.

With `NC(=O)c1ccc(=O)n(Cc2cc(Br)ccc2Cl)n1`, the cytotoxicity at 70.5 h is -5.48%.

For `COc1ccc(Br)cc1Cn1nc(C(N)=O)ccc1=O`, the cytotoxicity at 70.5 h was -6.15%.

On to `CC(=O)NC1CCN(c2cnc(C3CCNCC3)cn2)CC1`, for which the cytotoxicity at 70.5 h is -3.96%.

Take `CC(=O)N1CCN(c2cncc(C3CCNCC3)n2)CC1`: the cytotoxicity at 70.5 h is 34.1%.

Consider `CN(C)C(=O)Cn1c(C2CC2)c(CN2CCC(O)CC2)c2cccnc21`, for which the cytotoxicity at 70.5 h was determined as 12.5%.

For `CN(C)C(=O)c1sc2ncccc2c1C1CNCCO1` (stereo unspecified), the cytotoxicity at 70.5 h was -6.3%.

For the compound `c1ccc(CN2CCNCC(Cc3cnccn3)C2)cc1` (stereo unspecified), the cytotoxicity at 70.5 h was -1.06%.

As to `Fc1ccccc1CNc1ccnc(C2CCNCC2)c1`, the cytotoxicity at 70.5 h was 18%.

Take `CCC1=N[C@@]2(CC[C@@H]3CN(CC(=O)N(C)C)C[C@@H]32)C(=O)N1CC1CC1`: the cytotoxicity at 70.5 h is -13.2%.

Turning to `CC(=O)NC1CCN(c2ccnc(C3CCNCC3)c2)CC1`, the cytotoxicity at 70.5 h is -5.48%.

As for `CCc1ncnc2c1CCN(Cc1ccccn1)CC2`, the cytotoxicity at 70.5 h was found to be 28%.

On to `COC[C@@H]1CCC[C@]12CN(Cc1cccc(C)n1)CCO2`, for which the cytotoxicity at 70.5 h is -14.3%.

As to `Cc1ccc(CN2CCC(O)(Cn3nc(-c4cccs4)oc3=O)CC2)o1`, the cytotoxicity at 70.5 h was -1.27%.

Regarding `CN(C)CCN(Cc1ccccn1)Cc1ccnn1C1CCCCO1` (stereo unspecified), the cytotoxicity at 70.5 h is -2.87%.

As for `Fc1ccc(CN[C@@H]2COC[C@H]2c2ccc(F)cc2)cc1`, the cytotoxicity at 70.5 h came out at 0.602%.

With `Cc1ccc(CN(CCN(C)C)Cc2ccnn2C2CCCCO2)o1` (stereo unspecified), the cytotoxicity at 70.5 h was -3.26%.

`CN(C)CCCN(Cc1ccco1)Cc1ccnn1C1CCCCO1` (stereo unspecified): the cytotoxicity at 70.5 h is -8.64%.
